Experimental data as given in PubChem BioAssay AID1259411 (Chemical Carcinogenesis Research Information System (CCRIS), 2018).
Activity calls are given as the source filed them. No rule for the calls is given here.

System: rodent carcinogenicity bioassays, tumor incidence
Test: CCRIS carcinogenicity studies
Settings: Dose: 0
How it was run: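 Archive of carcinogenicity, mutagenicity, tumor promotion and tumor inhibition results drawn from journals, NCI reports and other sources, expert-reviewed; covers 1985-2011 and is no longer updated.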

O[C@@H]1C=Cc2c(ccc3cc4ccc5ccccc5c4nc23)[C@H]1O
carcinogen call (Species: MOUSE, Strain/Sex: CD-1/FEMALE, Route: INTRAPERITONEAL, 175 NMOL (TOTAL DOSE) ADMINISTERED AS 1/7 OF DOSE WITHIN 24 HR AFTER BIRTH, 2/7 OF DOSE AT 8 D OLD, 4/7 OF DOSE AT 15, Tumor Site: Type of Lesion: LUNG: TUMOR): active; positive
carcinogen call (Species: MOUSE, Strain/Sex: CD-1/MALE, Route: INTRAPERITONEAL, 175 NMOL (TOTAL DOSE) ADMINISTERED AS 1/7 OF DOSE WITHIN 24 HR AFTER BIRTH, 2/7 OF DOSE AT 8 D OLD, 4/7 OF DOSE AT 15, Tumor Site: Type of Lesion: LIVER: TUMOR, LUNG: TUMOR): active; positive

O=c1[nH]c(=O)n(C2CCCO2)cc1F (stereo not given)
carcinogen call (Species: MOUSE, Strain/Sex: C57BL/CBA/FEMALE, Route: GAVAGE, 40 MG/KG IN 0.2 ML OF A STARCH/WATER SUSPENSION 2/WK FOR 12 MO (STUDY DURATION: LIFETIME)): inactive; negative
carcinogen call (Species: MOUSE, Strain/Sex: C57BL/CBA/MALE, Route: GAVAGE, 40 MG/KG IN 0.2 ML OF A STARCH/WATER SUSPENSION 2/WK FOR 12 MO (STUDY DURATION: LIFETIME)): inactive; negative
carcinogen call (Species: RAT, Strain/Sex: WISTAR/FEMALE, Route: GAVAGE, 60 MG/KG IN 0.5 ML OF A STARCH/WATER SUSPENSION 2/WK FOR 12 MO (STUDY DURATION: LIFETIME)): inactive; negative
carcinogen call (Species: RAT, Strain/Sex: WISTAR/MALE, Route: GAVAGE, 60 MG/KG IN 0.5 ML OF A STARCH/WATER SUSPENSION 2/WK FOR 12 MO (STUDY DURATION: LIFETIME)): inactive; negative

CC1CC(C)(C)CC(OOC(C)(C)C)(OOC(C)(C)C)C1 (stereo not given)
carcinogen call (Species: MOUSE, Strain/Sex: B6C3F1/FEMALE, Route: ORAL, 0.25, 0.5% IN DIET FOR 78 WK (STUDY DURATION: 83 WK), 0.25, 0.5% IN DIET FOR 78 WK (STUDY DURATION: 83 WK)): inactive; negative
carcinogen call (Species: MOUSE, Strain/Sex: B6C3F1/MALE, Route: ORAL, 0.25, 0.5% IN DIET FOR 78 WK (STUDY DURATION: 83 WK), 0.25, 0.5% IN DIET FOR 78 WK (STUDY DURATION: 83 WK)): inactive; negative

CCCCC/C=N/N(C)C=O
carcinogen call (Species: MOUSE, Strain/Sex: SWISS/FEMALE, Route: GAVAGE, 50, 100 UG/G/BW IN 0.01 ML OF PROPYLENE GLYCOL 1/WK FOR 52 WK (STUDY DURATION: 130 WK), 50, 100 UG/G/BW IN 0.01 ML OF PROPYLENE GLYCOL 1/WK FOR 52 WK (STUDY DURATION: 130 WK), Tumor Site: Type of Lesion: LUNG: ADENOMA OR ADENOCARCINOMA, LIVER: HEPATOMA OR CARCINOMA): active; positive
carcinogen call (Species: MOUSE, Strain/Sex: SWISS/MALE, Route: GAVAGE, 50, 100 UG/G/BW IN 0.01 ML OF PROPYLENE GLYCOL 1/WK FOR 52 WK (STUDY DURATION: 130 WK), 50, 100 UG/G/BW IN 0.01 ML OF PROPYLENE GLYCOL 1/WK FOR 52 WK (STUDY DURATION: 130 WK), Tumor Site: Type of Lesion: LUNG: ADENOMA AND ADENOCARCINOMA, PREPUTIAL GLAND: SQUAMOUS CELL PAPILLOMA OR SQUAMOUS CELL CARCINOMA OR ADENOMA): active; positive

O=C1c2cccc(O)c2C(=O)c2c(O)cccc21
carcinogen call (Species: MOUSE, Strain/Sex: C3H/HEN/MALE, Route: ORAL, 0.2% IN DIET FOR DURATION OF STUDY (STUDY DURATION: 540 D), Tumor Site: Type of Lesion: LIVER: HEPATOCELLULAR CARCINOMA): active; positive
carcinogen call (Species: RAT, Strain/Sex: ACI/MALE, Route: ORAL, 1% IN DIET FOR DURATION OF STUDY (STUDY DURATION: 16 MO), Tumor Site: Type of Lesion: INTESTINE: ADENOMA OR CARCINOMA): active; positive

O=c1ccc(=O)[nH][nH]1
carcinogen call (Species: MOUSE, Strain/Sex: ICR/HA SWISS/FEMALE, Route: SUBCUTANEOUS, 0.5 MG IN 0.1 ML WATER ON D 1 AND 7 OF AGE THEN 0, 1 MG IN 0.2 ML ON D 14 AND 21 FOR A TOTAL DOSE OF 0, 3 MG (STUDY D, 0.5 MG IN 0.1 ML WATER ON D 1 AND 7 OF AGE THEN 0, 1 MG IN 0.2 ML ON D 14 AND 21 FOR A TOTAL DOSE OF 0, 3 MG (STUDY D): inactive; negative
carcinogen call (Species: MOUSE, Strain/Sex: ICR/HA SWISS/FEMALE, Route: SUBCUTANEOUS, 5 MG IN 0.1 ML TRICAPRYLIN SUSPENSION ON D 1 OF AGE THEN 0, 10 MG IN 0.1 ML ON D 7, 0, 20 MG IN 0.2 ML ON D 14 AND 21, 5 MG IN 0.1 ML TRICAPRYLIN SUSPENSION ON D 1 OF AGE THEN 0, 10 MG IN 0.1 ML ON D 7, 0, 20 MG IN 0.2 ML ON D 14 AND 21): inactive; negative
carcinogen call (Species: MOUSE, Strain/Sex: ICR/HA SWISS/MALE, Route: SUBCUTANEOUS, 5 MG IN 0.1 ML TRICAPRYLIN SUSPENSION ON D 1 OF AGE THEN 0, 10 MG IN 0.1 ML ON D 7, 0, 20 MG IN 0.2 ML ON D 14 AND 21, 5 MG IN 0.1 ML TRICAPRYLIN SUSPENSION ON D 1 OF AGE THEN 0, 10 MG IN 0.1 ML ON D 7, 0, 20 MG IN 0.2 ML ON D 14 AND 21, Tumor Site: Type of Lesion: LIVER: HEPATOMA): active; positive

Clc1ccccc1
carcinogen call (Species: MOUSE, Strain/Sex: B6C3F1/FEMALE, Route: GAVAGE, 60, 120 MG/KG IN CORN OIL 5 D/WK FOR 103 WK (STUDY DURATION: 105 WK), 60, 120 MG/KG IN CORN OIL 5 D/WK FOR 103 WK (STUDY DURATION: 105 WK)): inactive; negative
carcinogen call (Species: MOUSE, Strain/Sex: B6C3F1/MALE, Route: GAVAGE, 30, 60 MG/KG IN CORN OIL 5 D/WK FOR 103 WK (STUDY DURATION: 105 WK), 30, 60 MG/KG IN CORN OIL 5 D/WK FOR 103 WK (STUDY DURATION: 105 WK)): inactive; negative
carcinogen call (Species: RAT, Strain/Sex: F344/FEMALE, Route: GAVAGE, 60, 120 MG/KG IN CORN OIL 5 D/WK FOR 103 WK (STUDY DURATION: 105 WK), 60, 120 MG/KG IN CORN OIL 5 D/WK FOR 103 WK (STUDY DURATION: 105 WK)): inactive; negative
carcinogen call (Species: RAT, Strain/Sex: F344/MALE, Route: GAVAGE, 60, 120 MG/KG IN CORN OIL 5 D/WK FOR 103 WK (STUDY DURATION: 105 WK), 60, 120 MG/KG IN CORN OIL 5 D/WK FOR 103 WK (STUDY DURATION: 105 WK), Tumor Site: Type of Lesion: LIVER: NEOPLASTIC NODULE, NEOPLASTIC NODULE OR CARCINOMA): equivocal

CCCCCCCCCCCCCC(=O)O[C@@H]1[C@@H](C)[C@@]2(O)[C@@H](C=C(CO)C[C@]3(O)C(=O)C(C)=C[C@@H]23)[C@@H]2C(C)(C)[C@]12OC(C)=O
carcinogen call (Species: MOUSE, Strain/Sex: BALB/MALE, FEMALE, Route: DERMAL, 18 NMOL IN ACETONE 1/WK FOR 17 MO (STUDY DURATION: 24 MO), Tumor Site: Type of Lesion: SKIN: SQUAMOUS CELL PAPILLOMA): active; positive
carcinogen call (Species: MOUSE, Strain/Sex: HR-HR/MALE, FEMALE, Route: DERMAL, 18 NMOL IN ACETONE 1/WK FOR 18 MO (STUDY DURATION: 24 MO)): inactive; negative
carcinogen call (Species: MOUSE, Strain/Sex: HR/HR/MALE, FEMALE, Route: DERMAL, 20, 40, 100, 1000, 1200, 1394 NMOL TOTAL DOSE WITH RESPECTIVE ADMINISTRATIONS OF 20 NMOL ONCE, 2 NMOL TWICE, 20 NMOL, 20, 40, 100, 1000, 1200, 1394 NMOL TOTAL DOSE WITH RESPECTIVE ADMINISTRATIONS OF 20 NMOL ONCE, 2 NMOL TWICE, 20 NMOL, Tumor Site: Type of Lesion: SKIN: TUMOR): active; positive

C[N+](C)(C)NCCC(=O)[O-]
carcinogen call (Species: MOUSE, Strain/Sex: B6D2F1/FEMALE, Route: GAVAGE, 400, 4000 MG/KG BW IN 0.2 ML WATER 3X/WK FOR 22 MONTHS (STUDY DURATION: 22 MONTHS), 400, 4000 MG/KG BW IN 0.2 ML WATER 3X/WK FOR 22 MONTHS (STUDY DURATION: 22 MONTHS)): inactive; negative
carcinogen call (Species: MOUSE, Strain/Sex: C3H/FEMALE, Route: ORAL, 0.1% IN DRINKING WATER FOR LIFETIME (STUDY DURATION: LIFETIME)): inactive; negative
carcinogen call (Species: MOUSE, Strain/Sex: SHR/FEMALE, Route: SUBCUTANEOUS, 0.1 MG IN ISOTONIC SALINE 1X/D FOR 5 D WITH 4-WK INTERVALS FOR LIFETIME (STUDY DURATION: LIFETIME)): inactive; negative
